According to patent publication US10570179B2, “Substituted urea depsipeptide analogs as activators of the CLPP endopeptidase” (priority 2016, dated 2020):
In brackets after ≈: the same amount, converted by molar mass. Read-outs that look alike come from different tables or passages of the source. Numbered stars: 1 amine (or outer) side, 2 acyl side, 3 side chain; on linkers, the order of the positions; unused ones are H or OH. Bridge positions count the residues as written; N and C are the ends. Square brackets hold non-standard residues; d marks the D form. Peptide text beside a SMILES is read from it. * marks the point of attachment. ξ: configuration not given here. Piperazine(2S-CO,4-Me) = CN1CCN[C@H](C(=O)O)C1; Phe(3,5-Me2) = Cc1cc(C)cc(C[C@H](N)C(=O)O)c1; Phe(3-Me) = Cc1cccc(C[C@H](N)C(=O)O)c1; X4 = O=C1CN([*:1])[C@H](C(=O)[*:2])CN1; NH(4-Cl-2-F-phenyl) = Fc1cc(Cl)ccc1N*; Pro(4R-Me) = C[C@H]1CN[C@H](C(=O)O)C1; Hyp = O=C(O)[C@@H]1C[C@@H](O)CN1; NH(4-Et-phenyl) = CCc1ccc(N*)cc1; NH(4-Me-phenyl) = Cc1ccc(N*)cc1; ξNMeThr = CNC(C(=O)O)[C@@H](C)O; aThr = C[C@H](O)[C@H](N)C(=O)O; Pip = O=C(O)[C@@H]1CCCCN1; X3 = c1cc2c(cc1N*)OCCO2; CO = O=C([*:1])[*:2]

Assays:
Sa-ClpP = target: T1, Sa-ClpP (Staphylococcus aureus, UniProt Q2G036); experiment: ADEP displacement fluorescence polarization assay; assay type: binding, S. aureus; details: displacement of FP probe ADEP 2591 from Sa-ClpP
T1 construct: made in house; host or cells: E. coli BL21 (DE3)
Description: A fluorescence polarization (FP) assay was used to determine the activity of the disclosed compounds in displacing an ADEP analogue from ClpP. Briefly, the assay was performed in black 384 well, flat bottom, low volume plates (Greiner Bio-One, Monroe, N.C., catalog #784076). 20 μL of a pre-equilibrated (1 hr, room temperature) master mix (15 μM Sa-ClpP, 2% DMSO (v/v) and 50 nM FP probe in TrisHCl, pH 8.0)) was pipetted into each well using a Well-Mate (Thermo Scientific, Waltham, Mass.). Sa-ClpP was prepared as described above for the ClpP activation assay. The FP probe was ADEP 2591 (structure shown above). The ADEP 2591 comprises a TAMRA fluorophore linked to a core based on modified ADEP 2378 via a short alkyl linker. Using pin transfer, approximately 0.4 μL (2% v/v DMSO) of each compound or control was added per well. After addition of compounds and controls, plates were allowed to incubate for an additional 120 minutes at room temperature. All assays were performed in triplicate. Polarization was monitored using an EnVision Multilabel reader (Perkin-Elmer, Waltham, Mass.) by exciting the FP probe at 530±25 nm, and monitoring fluorescence intensity of both parallel and perpendicular polarized light at 579±25 nm. Readout was in millipolarization units (mP).
Signal gain and G factors were determined in wells containing 200 μM ADEP 2378, which had been previously verified (data not shown) as containing completely unbound ADEP 2591. Data collected was normalized to values obtained from positive (200 μM ADEP 2378) or negative (DMSO) controls. Curves were fit with non-linear regression using the equation “log [inhibitor] vs. Response-variable slope (four parameters)-symmetrical” in the program Prism 6 (GraphPad Software, La Jolla, Calif. USA, www.graphpad.com). The structures for ADEP 2378 and ADEP 2591 are shown above. ADEP 2378 is (E)-N—((S)-1-(((2R,6S,8aS,14aS,20S,23aS)-2,6-dimethyl-5,8,14,19,23-pentaoxooctadecahydro-1H,5H,14H,19H-pyrido[2,1-i]dipyrrolo[2,1-c:2′,1′-1][1]oxa[4,7,10,13]tetraazacyclohexadecin-20-yl)amino)-1-oxo-3-phenylpropan-2-yl)pent-2-enamide. ADEP 2591 is 5-(3-(3-((6S,9S,11aS,17S,20aS)-6,10-dimethyl-5,8,11,16,20-pentaoxo-17-((S)-2-((E)-pent-2-enamido)-3-phenylpropanamido)hexadecahydro-1H,5H,16H-dipyrrolo[2,1-c:2′,1′-1][1]oxa[4,7,10,13]tetraazacyclohexadecin-9-yl)propyl)thioureido)-2-(6-(dimethylamino)-3-(dimethyliminio)-3H-xanthen-9-yl)benzoate.

Solubility determination = assay type: physicochemical; details: for solubility kinetic at 10 min: 22 °C, aqueous buffer, kinetic from dmso stock
Procedure, shortened: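 DMSO stock spiked into DPBS at 100 µM final, in triplicate, shaken 10 min, then centrifuged 20 min at 22 °C. Supernatant quantified by UPLC-UV and single-ion-recording MS against DMSO calibration standards (0.098–100 µM), using 1/x²-weighted linear regression.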

T1 sequence (Q2G036 whole entry): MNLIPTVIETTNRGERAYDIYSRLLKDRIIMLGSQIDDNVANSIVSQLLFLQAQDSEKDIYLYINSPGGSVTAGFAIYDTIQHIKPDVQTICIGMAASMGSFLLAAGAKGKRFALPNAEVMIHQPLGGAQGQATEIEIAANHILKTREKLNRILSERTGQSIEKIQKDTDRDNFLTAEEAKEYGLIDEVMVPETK

Row | Compound | IC50 (Sa-ClpP) [µM] | μsol (μM) (Solubility determination) [µM] | μsol (μg/mL) (Solubility determination) [µg/mL] | solubility kinetic at 10 min (Solubility determination) [µM] | solubility kinetic at 10 min (Solubility determination; solubility in DPBS, 100 μM test samples, LCMS, read-out: LCMS) [µM] | μsol (μM) (Solubility determination; solubility) [µM] | μsol (μg/mL) (Solubility determination; solubility) [µg/mL]
1 | Cc1cccc(C[C@H](NC(=O)Nc2ccc(Cl)cc2F)C(=O)N[C@@H]2C(=O)N3CCC[C@H]3C(=O)N3CCCC[C@H]3C(=O)N[C@@H](C)C(=O)N3C[C@H](C)C[C@H]3C(=O)O[C@H]2C)c1 [Compound 3, (S)-2-(3-(4-CHLORO-2-FLUOROPHENYL)UREIDO)-3-(M-TOLYL)-N-((2R,6S,8AS,14AS,20S,21S,23AS)-2,6,21-TRIMETHYL-5,8,14,19,23-PENTAOXOOCTADECAHYDRO-1H,5H,14H,19H-PYRIDO[2,1-I]DIPYRROLO[2,1-C:2′,1′-L][1]OXA[4,7,10,13]TETRAAZACYCLOHEXADECIN-20-YL)PROPANAMIDE] ({NH(4-Cl-2-F-phenyl)-CO}-[Phe(3-Me)][aThr]P[Pip]A[Pro(4R-Me)]; ester 2-C) | 6.61 ± 0.28 | 2.2 ± 0.1 | 1.8 ± 0.1 | 0.5 (≈ 0.412 µg/mL) |  |  | 
2 | Cc1cccc(C[C@H](NC(=O)Nc2ccc3c(c2)OCCO3)C(=O)N[C@@H]2C(=O)N3C[C@H](O)C[C@H]3C(=O)N3CCCC[C@H]3C(=O)N[C@@H](C)C(=O)N3C[C@H](C)C[C@H]3C(=O)O[C@H]2C)c1 [Compound 28, (S)-2-(3-(2,3-DIHYDROBENZO[B][1,4]DIOXIN-6-YL)UREIDO)-N-((2R,6S,8AS,14AS,16R,20S,21S,23AS)-16-HYDROXY-2,6,21-TRIMETHYL-5,8,14,19,23-PENTAOXOOCTADECAHYDRO-1H,5H,14H,19H-PYRIDO[2,1-I]DIPYRROLO[2,1-C:2′,1′-L][1]OXA[4,7,10,13]TETRAAZACYCLOHEXADECIN-20-YL)-3-(M-TOLYL)PROPANAMIDE] ({X3-CO}-[Phe(3-Me)][aThr][Hyp][Pip]A[Pro(4R-Me)]; ester 2-C) | 4.86 ± 0.17 | 30.2 ± 0.2 |  | 34.7 ± 4.7 (≈ 29.4 µg/mL) |  |  | 
3 | CCc1ccc(NC(=O)N[C@@H](Cc2cccc(C)c2)C(=O)N[C@H]2COC(=O)[C@@H]3C[C@@H](C)CN3C(=O)[C@H](C)NC(=O)[C@@H]3CN(C)CCN3C(=O)[C@@H]3CCCN3C2=O)cc1 [Compound 16, (S)-2-(3-(4-ETHYLPHENYL)UREIDO)-3-(M-TOLYL)-N-((6AS,12S,15AS,17R,21S,23AS)-2,17,21-TRIMETHYL-6,11,15,20,23-PENTAOXOOCTADECAHYDRO-2H,6H,11H,15H-PYRAZINO[2,1-I]DIPYRROLO[2,1-C:2′,1′-L][1]OXA[4,7,10,13]TETRAAZACYCLOHEXADECIN-12-YL)PROPANAMIDE] ({NH(4-Et-phenyl)-CO}-[Phe(3-Me)]SP[Piperazine(2S-CO,4-Me)]A[Pro(4R-Me)]; ester 2-C) | 5.46 ± 0.2 | 47.4 ± 5.7 |  | 53.2 ± 6.5 (≈ 42.6 µg/mL) |  |  | 
4 | Cc1cccc(C[C@H](NC(=O)Nc2ccc(Cl)cc2F)C(=O)N[C@@H]2C(=O)N3C[C@H](O)C[C@H]3C(=O)N3CCN(C)C[C@H]3C(=O)N[C@@H](C)C(=O)N3C[C@H](C)C[C@H]3C(=O)O[C@H]2C)c1 [Compound 31, (S)-2-(3-(4-CHLORO-2-FLUOROPHENYL)UREIDO)-N-((6AS,8R,12S,13S,15AS,17R,21S,23AS)-8-HYDROXY-2,13,17,21-TETRAMETHYL-6,11,15,20,23-PENTAOXOOCTADECAHYDRO-2H,6H,11H,15H-PYRAZINO[2,1-I]DIPYRROLO[2,1-C:2′,1′-L][1]OXA[4,7,10,13]TETRAAZACYCLOHEXADECIN-12-YL)-3-(M-TOLYL)PROPANAMIDE] ({NH(4-Cl-2-F-phenyl)-CO}-[Phe(3-Me)][aThr][Hyp][Piperazine(2S-CO,4-Me)]A[Pro(4R-Me)]; ester 2-C) | 3.07 ± 0.07 | 54.7 ± 4.7 |  | 68.9 ± 8.9 (≈ 58.9 µg/mL) |  |  | 
5 | Cc1ccc(NC(=O)N[C@@H](Cc2cc(C)cc(C)c2)C(=O)N[C@@H]2C(=O)N3CCC[C@H]3C(=O)N3CCCC[C@H]3C(=O)N[C@@H](C)C(=O)N3C[C@H](C)C[C@H]3C(=O)O[C@H]2C)cc1 [Compound 2, (S)-3-(3,5-DIMETHYLPHENYL)-2-(3-(P-TOLYL)UREIDO)-N-((2R,6S,8AS,14AS,20S,21S,23AS)-2,6,21-TRIMETHYL-5,8,14,19,23-PENTAOXOOCTADECAHYDRO-1H,5H,14H,19H-PYRIDO[2,1-I]DIPYRROLO[2,1-C:2′,1′-L][1]OXA[4,7,10,13]TETRAAZACYCLOHEXADECIN-20-YL)PROPANAMIDE] ({NH(4-Me-phenyl)-CO}-[Phe(3,5-Me2)][aThr]P[Pip]A[Pro(4R-Me)]; ester 2-C) | 8.82 ± 0.4 |  |  |  | 6.7 (≈ 5.36 µg/mL) | 10.4 | 8.3
6 | Cc1cccc(C[C@H](NC(=O)Nc2ccc(Cl)cc2F)C(=O)N[C@@H]2C(=O)N3CCC[C@H]3C(=O)N3CC(=O)NC[C@H]3C(=O)N[C@@H](C)C(=O)N3C[C@H](C)C[C@H]3C(=O)O[C@H]2C)c1 [Compound 20, (S)-2-(3-(4-CHLORO-2-FLUOROPHENYL)UREIDO)-3-(M-TOLYL)-N-((6AS,12S,13S,15AS,17R,21S,23AS)-13,17,21-TRIMETHYL-3,6,11,15,20,23-HEXAOXOOCTADECAHYDRO-2H,6H,11H,15H-PYRAZINO[2,1-I]DIPYRROLO[2,1-C:2′,1′-L][1]OXA[4,7,10,13]TETRAAZACYCLOHEXADECIN-12-YL)PROPANAMIDE] ({NH(4-Cl-2-F-phenyl)-CO}-[Phe(3-Me)][aThr]P[X4]A[Pro(4R-Me)]; ester 2-C) | 4.21 ± 0.2 | 29.9 ± 1.5 |  | 34.4 ± 1.1 (≈ 28.9 µg/mL) |  |  | 
7 | Cc1cccc(C[C@H](NC(=O)Nc2ccc3c(c2)OCO3)C(=O)N[C@H]2COC(=O)[C@@H]3C[C@@H](C)CN3C(=O)[C@H](C)NC(=O)[C@@H]3CCCCN3C(=O)[C@@H]3CCCN3C2=O)c1 [Compound 23, (S)-2-(3-(BENZO[D][1,3]DIOXOL-5-YL)UREIDO)-N-((2R,6S,8AS,14AS,20S,23AS)-2,6-DIMETHYL-5,8,14,19,23-PENTAOXOOCTADECAHYDRO-1H,5H,14H,19H-PYRIDO[2,1-I]DIPYRROLO[2,1-C:2′,1′-L][1]OXA[4,7,10,13]TETRAAZACYCLOHEXADECIN-20-YL)-3-(M-TOLYL)PROPANAMIDE] | 1.96 ± 0.12 | 3.0 ± 0.0 |  | 1.7 ± 0.1 (≈ 1.36 µg/mL) |  |  | 
8 | Cc1cccc(C[C@H](NC(=O)Nc2ccc3c(c2)OCCO3)C(=O)N[C@@H]2C(=O)N3CCC[C@H]3C(=O)N3CCCC[C@H]3C(=O)N[C@@H](C)C(=O)N3C[C@H](C)C[C@H]3C(=O)O[C@H]2C)c1 [Compound 21, (S)-2-(3-(2,3-DIHYDROBENZO[B][1,4]DIOXIN-6-YL)UREIDO)-3-(M-TOLYL)-N-((2R,6S,8AS,14AS,20S,21S,23AS)-2,6,21-TRIMETHYL-5,8,14,19,23-PENTAOXOOCTADECAHYDRO-1H,5H,14H,19H-PYRIDO[2,1-I]DIPYRROLO[2,1-C:2′,1′-L][1]OXA[4,7,10,13]TETRAAZACYCLOHEXADECIN-20-YL)PROPANAMIDE] ({X3-CO}-[Phe(3-Me)][aThr]P[Pip]A[Pro(4R-Me)]; ester 2-C) | 3.74 ± 0.24 | 36.8 ± 1.6 |  | 30.6 ± 0.7 (≈ 25.4 µg/mL) |  |  | 
9 | Cc1cccc(C[C@H](NC(=O)Nc2ccc(Cl)cc2F)C(=O)N[C@H]2COC(=O)[C@@H]3C[C@@H](C)CN3C(=O)[C@H](C)NC(=O)[C@@H]3CCCCN3C(=O)[C@@H]3C[C@@H](O)CN3C2=O)c1 [Compound 10] | 4.65 ± 0.2 | 26.0 ± 0.9 |  | 27.04 ± 0.25 (≈ 22.3 µg/mL) |  |  | 
10 | Cc1cccc(C[C@H](NC(=O)Nc2ccc(Cl)cc2F)C(=O)N[C@@H]2C(=O)N3CCC[C@H]3C(=O)N(C)C([C@@H](C)O)C(=O)N[C@@H](C)C(=O)N3C[C@H](C)C[C@H]3C(=O)O[C@H]2C)c1 (stereo partly drawn) [Compound 5] ({NH(4-Cl-2-F-phenyl)-CO}-[Phe(3-Me)][aThr]P[ξNMeThr]A[Pro(4R-Me)]; ester 2-C) | 4.4 ± 0.4 | 22.5 ± 1.9 |  | 17.4 ± 0.4 (≈ 14.4 µg/mL) |  |  | 
